Measurements: patent US20110195987A1, “TREATMENT WITH CHOLINERGIC AGONISTS” (priority 2009, published 2011)

What was measured:
Type in all cases: in vivo, human
[1] = Case studies: vaginal dryness / vaginal secretions in female patients
Description: (§1) A second patient two, suffering from painful intercourse and vaginal dryness and discomfort, also used oral pilocarpine at a dose of 2.5-5 mg BID. […] A trial of intra-vaginal administration of pilocarpine, starting at a dose of 1/4 of a 5 mg tablet daily at night was tried. […] The patient had previously tried HRT without much improvement. The improvement in vaginal symptoms was stunning.
(§2) A third patient has had problems with vaginal dryness and painful intercourse for several years. Oral hormone replacement therapy consisting of both estradiol and PROMETRIUM (progesterone), had provided no relief for their vaginal symptoms. They were started on oral Evoxac, 30 mg daily. After a week, they administered 30 mg cevimeline mixed with a small amount of yogurt directly in the vagina nightly. They have reported improvement in both vaginal dryness and pain on intercourse and continues on the treatment.
They were started on oral pilocarpine, 5 mg twice a day. Within a few days, they noticed marked improvement in their symptoms, i.e., a reduction in vaginal dryness and symptoms associated with urinary tract infections. […]
(§3) Their symptoms consisted of vaginal and pelvic pain as well as signs of urinary tract infections with trace positive cultures. Prior attempts to treat urinary tract infections with antibiotics often failed. They began a regimen of oral pilocarpine, 5 mg twice a day, for a week followed by 5 mg pilocarpine administered directly to the vagina nightly for a week. Subsequently, the amount of pilocarpine was increased to 10 mg directly administered to the vagina nightly. […] Additionally, they reported a reduction in pelvic pain and vaginal dryness a few days after commencing intravaginal administration of 10 mg pilocarpine.

[2] = Case studies: symptoms of interstitial cystitis (IC) in female patients
Description: (§4) In the case of a patient who has been diagnosed with IC for more than 8 years, no prior treatment has helped the episodes of pain, urinary frequency, and systemic symptoms mentioned above. […] However, the onset of breast cancer and its treatment have precluded the use of Hormone Replacement Therapy (HRT). Because of vaginal dryness, a trial of Evoxac (cevimeline HCl) capsules, 30 mg daily, by oral administration was tried. […] This lasted for about 2 months. The Evoxac was started on or about Apr. 5, 2009. […] Metoprolol at a dose of 12.5-25 mg/day was started to slow the heart rate. […] The Evoxac was restarted at a dose of 15 mg daily. A trial of intra-vaginal medication at a dose of 30 mg per vagina (powder was taken out of the capsule and instilled using a gel cap) was also tried.
as §3

[3] = Case studies: side effects of oral versus intra-vaginal administration
Description: as §4, §1
(§5) […] They began and tolerated oral pilocarpine, 5 mg twice a day.

[4] = Case studies: painful intercourse in female patients
Description: as §1, §2
(§6) They began a week long regimen of oral pilocarpine, 5 mg twice a day, followed by 10 mg placed directly in the vagina nightly. They reported improvement in symptoms associated with urinary tract infections, vaginal dryness and painful intercourse. […] Formulation of the pilocarpine in a manner suitable for intravaginal administration will improve delivery of the pilocarpine and the efficacy of treatment.

[5] = Case studies: urinary tract infections in female patients
Description: […] […] They were started on oral pilocarpine, 5 mg twice a day. Within a few days, they noticed marked improvement in their symptoms, i.e., a reduction in vaginal dryness and symptoms associated with urinary tract infections.
as §5, §6

[6] = Case study: vaginal yeast infections in patient; settings: Case Study 5, patient one; oral 5 mg twice a day, approximately 8 months
Description: as §5

[7] = Case Study 3, patient seven, oral 30 mg daily for a week, then 30 mg in yogurt directly in the vagina nightly
[8] = Case Study 1, patient three, 30 mg daily, oral
[9] = Case Study 2, patient two, intra-vaginal up to 7.5 mg daily
[10] = Case Study 2, patient two, oral 2.5-5 mg BID
[11] = Case Study 4, patient five, oral 5 mg twice a day, within a few days
[12] = Case Study 5, patient one, oral 5 mg twice a day, approximately 8 months
[13] = Case Study 6, patient six, oral 5 mg twice a day for a week, then 10 mg in the vagina nightly
[14] = Case Study 7, patient four, 10 mg intravaginal nightly, a few days after commencing

SMILES: CC1OC2(CS1)CN1CCC2CC1 (stereo not drawn) [Evoxac, 2-methyspiro (1,3-oxathiolane-5,3) quinuclidine]
- vaginal dryness ([1]; Case Study 1, patient three, capsules 30 mg daily, oral): improvement in vaginal dryness
- vaginal dryness [1, 7]: improvement
- symptoms of IC ([2]; Case Study 1, patient three, 15 mg daily oral, compared with prior treatment incl. Elmiron 100 mg TID four months): improved the symptoms of IC better than any prior treatment
- duration of remission of IC symptoms [2, 8]: about 2 months
- symptoms of IC [2, 8]: remitted
- symptoms of IC ([2]; Case Study 1, patient three, 30 mg intra-vaginal (powder in gel cap), compared with prior treatment incl. Elmiron 100 mg TID four months): improved the symptoms of IC better than any prior treatment
- symptoms of IC after discontinuing the medication ([2]; Case Study 1, patient three, stopped for a few weeks): symptoms of IC return within a week
- side effects ([3]; Case Study 1, patient three, 30 mg intra-vaginal): completely eliminated side-effects
- side effects ([3]; Case Study 1, patient three, oral administration, 30 mg daily): nausea and rapid heart rate
- pain on intercourse [4, 7]: improvement

SMILES: CC(=O)[C@H]1CC[C@H]2[C@@H]3CCC4=CC(=O)CC[C@]4(C)[C@H]3CC[C@]12C [PROMETRIUM, progesterone]
- vaginal symptoms (vaginal dryness and painful intercourse) ([1]; Case Study 3, patient seven, oral hormone replacement therapy, estradiol and PROMETRIUM together): no relief

SMILES: CC[C@@H]1C(=O)OC[C@@H]1Cc1cncn1C [pilocarpine, (3S,4R)-3-ethyl-4-((1-methyl-1H-imidazol-5-yl)methyl)dihydrofuran-2(3H)-one]
- vaginal secretions ([1]; Case Study 2, patient two, intra-vaginal 2.5 mg daily): partial response
- vaginal secretions ([1]; Case Study 2, patient two, intra-vaginal 5 mg daily): improved greatly
- vaginal secretions ([1]; Case Study 2, patient two, intra-vaginal 7.5 mg daily): improved greatly
- improvement in vaginal symptoms [1, 9]: stunning
- vaginal dryness [1, 10]: improved
- vaginal dryness [1, 11]: reduction
- results of intermittent dosing ([1]; Case Study 4, patient five, oral, taken intermittently): satisfactory results
- vaginal dryness [1, 12]: no more vaginal dryness
- vaginal dryness [1, 13]: improvement
- vaginal secretions ([1]; Case Study 7, patient four, 5 mg directly to the vagina nightly, after the first week): an increase in vaginal secretions
- vaginal secretions ([1]; Case Study 7, patient four, 10 mg directly to the vagina nightly): increased more significantly
- vaginal dryness [1, 14]: reduction
- pelvic pain [2, 14]: reduction
- systemic symptoms ([3]; Case Study 2, patient two, intra-vaginal): no systemic symptoms
- side effects [3, 10]: excess sweating and nausea
- tolerability ([3]; Case Study 5, patient one, oral 5 mg twice a day): tolerated
- intercourse [4, 9]: could enjoy intercourse for the first time in many months
- painful intercourse [4, 13]: improvement
- symptoms associated with urinary tract infections [5, 11]: reduction
- urinary tract infections [5, 12]: far fewer
- symptoms associated with urinary tract infections [5, 13]: improvement
- vaginal yeast infections [6]: far fewer
